Measurements published in patent US20230303572A1, “18-MC SALT FORMS” (Mind Medicine, Inc., priority 2022, published 2023).
Where a name gives a salt, the structure may show the parent alone.

Legend:
[1] = Physical form stability on storage at RT, air drying or exposure to ambient conditions (XRPD); format: physicochemical; conditions: for Form after treatment: metastable forms; for form change after exposure to ambient conditions (XRPD): exposure to ambient conditions for ~30 min; for physical stability at ambient conditions: time not stated
Source text: (§1) For XRPD analysis, a PANalytical Empyrean and X′ Pert3 X-ray powder diffract meter was used.

[2] = Heating experiments and VT-XRPD (N2 drying, heating, cooling back): form change; format: physicochemical; conditions: for form change after heating (XRPD/VT-XRPD): heating to 100° C.; for form change after heating (XRPD): heating to 150° C.; for Form after heating: solid form by XRPD after heating, cells marked *, # have footnotes that are not shown; for form change after N2 drying (VT-XRPD): N2-drying for 30 min at 30° C.
Source text: as §1

[3] = after storage or heating experiments
[4] = after air drying or RT storage, duration not stated
[5] = the solid turn to gel-like after air drying at RT in a few minutes

COCC[C@H]1CC2CN3CCc4c([nH]c5ccccc45)[C@](C(=O)OC)(C2)[C@H]13 [HBr salt Type C, 18-methoxycoronaridine]
form conversion, summary statement [1, 3]: could convert to HBr salt Type A
form change after heating (XRPD/VT-XRPD) [2]: peak of HBr salt Type A was observed
form change after heating (XRPD) [2]: most diffraction peaks were consistent with HBr salt Type A

COCC[C@H]1CC2CN3CCc4c([nH]c5ccccc45)[C@](C(=O)OC)(C2)[C@H]13 [HBr salt Type D, 18-methoxycoronaridine]
form conversion, summary statement [1, 3]: could convert to HBr salt Type A
form change after heating (XRPD/VT-XRPD) [2]: extra peak of HBr salt Type A was observed
form change after heating (XRPD) [2]: most diffraction peaks of the sample were consistent with HBr salt Type A

COCC[C@H]1CC2CN3CCc4c([nH]c5ccccc45)[C@](C(=O)OC)(C2)[C@H]13 [HCl salt Type A+N, 18-methoxycoronaridine]
form change after storage (XRPD) ([1]; storage at RT for ~21 days): converted to HCl salt Type A completely

COCC[C@H]1CC2CN3CCc4c([nH]c5ccccc45)[C@](C(=O)OC)(C2)[C@H]13 [HCl salt Type A+O, 18-methoxycoronaridine]
form change after storage (XRPD) ([1]; storage at RT for ~19 days): converted to HCl salt Type A completely

COCC[C@H]1CC2CN3CCc4c([nH]c5ccccc45)[C@](C(=O)OC)(C2)[C@H]13 [HCl salt Type D, 18-methoxycoronaridine]
Form after treatment ([1]; Air drying): HCl salt Type A**
Form after heating [2]: HCl salt Type A*

COCC[C@H]1CC2CN3CCc4c([nH]c5ccccc45)[C@](C(=O)OC)(C2)[C@H]13 [HCl salt Type E, 18-methoxycoronaridine]
Form after treatment ([1]; Air drying): HCl salt Type A**
Form after heating [2]: HCl salt Type A**

COCC[C@H]1CC2CN3CCc4c([nH]c5ccccc45)[C@](C(=O)OC)(C2)[C@H]13 [HCl salt Type G, 18-methoxycoronaridine]
Form after treatment ([1]; RT storage): HCl salt Type A^#
Form after heating [2]: HCl salt Type A**

COCC[C@H]1CC2CN3CCc4c([nH]c5ccccc45)[C@](C(=O)OC)(C2)[C@H]13 [HCl salt Type J, 18-methoxycoronaridine]
Form after treatment ([1]; RT storage): HCl salt Type F^#
Form after heating [2]: HCl salt Type F*

COCC[C@H]1CC2CN3CCc4c([nH]c5ccccc45)[C@](C(=O)OC)(C2)[C@H]13 [HCl salt Type K, 18-methoxycoronaridine]
Form change after treatment ([1]; Exposure to ambient conditions (~50%RH), XRPD form): HCl salt Type F^#

COCC[C@H]1CC2CN3CCc4c([nH]c5ccccc45)[C@](C(=O)OC)(C2)[C@H]13 [HCl salt Type L, 18-methoxycoronaridine]
Form after treatment ([1]; RT storage): HCl salt Type A^#
form conversion, summary statement [1, 4]: converted to HCl salt Type A
Form after heating [2]: HCl salt Type A

COCC[C@H]1CC2CN3CCc4c([nH]c5ccccc45)[C@](C(=O)OC)(C2)[C@H]13 [HCl salt Type N, 18-methoxycoronaridine]
Form after treatment ([1]; RT storage): HCl salt Type A^#
form conversion, summary statement [1, 4]: converted to HCl salt Type A

COCC[C@H]1CC2CN3CCc4c([nH]c5ccccc45)[C@](C(=O)OC)(C2)[C@H]13 [HCl salt Type O, 18-methoxycoronaridine]
Form after treatment ([1]; RT storage): HCl salt Type A^#
form conversion, summary statement [1, 4]: converted to HCl salt Type A

COCC[C@H]1CC2CN3CCc4c([nH]c5ccccc45)[C@](C(=O)OC)(C2)[C@H]13 [HCl salt Type V, 18-methoxycoronaridine]
Form after treatment ([1]; Air drying): HCl salt Type A**
form conversion, summary statement [1, 4]: converted to HCl salt Type A
form change after air drying (XRPD) ([1]; air drying for ~3 hours): converted to HCl salt Type A completely

COCC[C@H]1CC2CN3CCc4c([nH]c5ccccc45)[C@](C(=O)OC)(C2)[C@H]13 [besylate Type C, 18-methoxycoronaridine]
form change after exposure to ambient conditions (XRPD) [1]: converted back to besylate Type A

COCC[C@H]1CC2CN3CCc4c([nH]c5ccccc45)[C@](C(=O)OC)(C2)[C@H]13 [mesylate Type B, 18-methoxycoronaridine]
physical stability at ambient conditions [1]: not found to be physically stable at ambient conditions and easily converted to gels/oils
Speculated form (physical stability) [1, 5]: Metastable*

COCC[C@H]1CC2CN3CCc4c([nH]c5ccccc45)[C@](C(=O)OC)(C2)[C@H]13 [mesylate Type C, 18-methoxycoronaridine]
physical stability at ambient conditions [1]: not found to be physically stable at ambient conditions and easily converted to gels/oils
Speculated form (physical stability) [1, 5]: Metastable*

COCC[C@H]1CC2CN3CCc4c([nH]c5ccccc45)[C@](C(=O)OC)(C2)[C@H]13 [sulfate Type B, 18-methoxycoronaridine]
form conversion, summary statement [1, 4]: converted to sulfate Type E
form change after storage (XRPD) ([1]; storage at RT in a sealed vial for ~12 days): form change to sulfate Type E

COCC[C@H]1CC2CN3CCc4c([nH]c5ccccc45)[C@](C(=O)OC)(C2)[C@H]13 [sulfate Type C, 18-methoxycoronaridine]
form conversion, summary statement [1, 4]: converted to sulfate Type A
form change after air drying (XRPD) ([1]; air drying at RT for ~30 min): converted to sulfate Type A

COCC[C@H]1CC2CN3CCc4c([nH]c5ccccc45)[C@](C(=O)OC)(C2)[C@H]13 [sulfate Type F, 18-methoxycoronaridine]
physical stability at ambient conditions [1]: not physically stable
form change after exposure to ambient conditions (XRPD) [1]: converted back to sulfate Type D
form change after heating (XRPD/VT-XRPD) [2]: remained sulfate Type F

COCC[C@H]1CC2CN3CCc4c([nH]c5ccccc45)[C@](C(=O)OC)(C2)[C@H]13 [tosylate Type A, 18-methoxycoronaridine]
form change after storage (XRPD) ([1]; storage at RT for ~7 days): peak of tosylate Type B was observed
form change after storage (XRPD) ([1]; storage for 3 weeks): totally converted to tosylate Type B
form change after N2 drying (VT-XRPD) [2]: no form change
form change after heating (XRPD/VT-XRPD) [2]: a form change was observed, which was assigned as tosylate Type I

COCC[C@H]1CC2CN3CCc4c([nH]c5ccccc45)[C@](C(=O)OC)(C2)[C@H]13 [tosylate Type C, 18-methoxycoronaridine]
form change after storage (XRPD) ([1]; storage at RT for about 2.5 month): form change to tosylate Type B
form change after N2 drying (VT-XRPD) [2]: form change was observed for tosylate Type C. The new form was assigned as tosylate Type D

COCC[C@H]1CC2CN3CCc4c([nH]c5ccccc45)[C@](C(=O)OC)(C2)[C@H]13 [tosylate Type H, 18-methoxycoronaridine]
form change after air drying (XRPD) ([1]; air drying for ~3 hours): form change to tosylate Type A
Speculated form (physical stability) ([1]; form characterization summary of tosylate): Metastable

COCC[C@H]1CC2CN3CCc4c([nH]c5ccccc45)[C@](C(=O)OC)(C2)[C@H]13 [tosylate Type I, 18-methoxycoronaridine]
form change after open dish (XRPD) ([1]; open dish for ~3 hrs): converted back to tosylate Type A with an extra peak of tosylate Type B
